Read-outs that look alike come from different tables or passages of the source.
Columns and labels:
[1] = tested on: KMS12-BM (NIK WT) multiple myeloma cells; assay: Antiproliferative activity on KMS12-BM multiple myeloma cells (CellTiter-Glo); format: cell-based, human; conditions: 96 hr treatment, averaged values, read-out: KMS-12 Proliferation inhibition (IC50 (nM))
Summary of the method: (§1)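 Cells plated at 15000 (JJN3) or 20000 (KMS12BM) per well and treated 96 h at 37° C, 5% CO2, final DMSO 0.3%, 9-point 1:3 dilutions. Viability by CellTiter-Glo luminescence; time-zero blank subtracted, growth expressed as percent of untreated control.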

[2] = target: recombinant human NF-kappaB-inducing Kinase (NIK/MAP3K14) (Homo sapiens, UniProt Q99558); assay: Inhibition of auto-phosphorylation of recombinant human NIK/MAP3K14 activity (AlphaScreen); format: biochemical; conditions: 25 microM ATP, averaged over all measurements on all batches
Chain of recombinant human NF-kappaB-inducing Kinase (NIK/MAP3K14) (Q99558 whole entry): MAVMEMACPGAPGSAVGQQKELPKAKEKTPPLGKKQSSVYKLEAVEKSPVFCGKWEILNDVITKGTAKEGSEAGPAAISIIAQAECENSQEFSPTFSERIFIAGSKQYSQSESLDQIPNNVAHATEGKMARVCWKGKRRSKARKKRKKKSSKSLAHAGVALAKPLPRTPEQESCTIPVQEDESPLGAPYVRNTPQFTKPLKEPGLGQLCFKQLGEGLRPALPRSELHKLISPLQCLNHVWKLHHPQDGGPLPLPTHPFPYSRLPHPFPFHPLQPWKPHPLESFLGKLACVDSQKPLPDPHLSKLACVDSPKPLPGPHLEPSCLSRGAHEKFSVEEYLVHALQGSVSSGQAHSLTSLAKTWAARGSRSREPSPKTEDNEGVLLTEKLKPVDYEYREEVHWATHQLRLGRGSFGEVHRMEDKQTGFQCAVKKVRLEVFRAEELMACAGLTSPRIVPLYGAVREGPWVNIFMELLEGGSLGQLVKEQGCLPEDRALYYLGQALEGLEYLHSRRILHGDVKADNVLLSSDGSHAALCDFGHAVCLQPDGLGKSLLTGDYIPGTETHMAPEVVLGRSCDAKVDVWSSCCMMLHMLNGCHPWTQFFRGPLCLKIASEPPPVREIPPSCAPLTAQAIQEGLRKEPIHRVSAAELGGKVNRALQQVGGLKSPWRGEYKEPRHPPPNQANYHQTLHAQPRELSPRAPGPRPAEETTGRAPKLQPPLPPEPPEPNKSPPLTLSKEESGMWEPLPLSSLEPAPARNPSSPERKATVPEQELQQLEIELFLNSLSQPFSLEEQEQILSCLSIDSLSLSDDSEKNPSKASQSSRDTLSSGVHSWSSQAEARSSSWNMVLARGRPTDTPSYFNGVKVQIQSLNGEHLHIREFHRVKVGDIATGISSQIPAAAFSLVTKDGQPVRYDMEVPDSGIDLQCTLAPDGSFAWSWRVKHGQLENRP

[3] = tested on: JJN-3 (NIK translocated) multiple myeloma cells; assay: Antiproliferative activity on JJN-3 multiple myeloma cells (CellTiter-Glo); format: cell-based, human; conditions: JJN-3 (NIK translocated) cells, 96 hr treatment, averaged values, read-out: JJN-3 Proliferation inhibition (IC50 (nM))
Summary of the method: as §1

[4] = tested on: P-IKKα levels in L363 (NIK translocated multiple myeloma) cells; assay: Effect of compounds on P-IKKα levels in L363 cells (Mesoscale sandwich immuno-assay); format: cell-based, human; conditions: 2 hr treatment, averaged values, read-out: Inhibition of pIKKα_L-363 (IC50 (nM))
Procedure: Effect of Compounds on P-IKKα Levels in L363 (NIK Translocated Multiple Myeloma) Cells
All compounds tested were dissolved in DMSO and further dilutions were made in culture medium. Final DMSO concentration was 1% (v/v) in cell assays. The human L363 cells (ATCC) were cultured in RPMI 1640 medium supplemented with GlutaMax and 10% fetal calf serum (PAA). Cells were routinely maintained at densities of 0.2×10^6 cells per ml-1×10^6 cells per ml at 37° C. in a humidified 5% CO2 atmosphere. Cells were passaged twice a week splitting back to obtain the low density. Cells were seeded in 96 well plates (Nunc 167008) at 2×10^6 per ml media in a volume of 75 μl per well plus 25 μl 1 μg/ml recombinant human B-cell activating factor (BAFF/BLyS/TNFSF13B). Seeded cells were incubated at 37° C. in a humidified 5% CO2 atmosphere for 24 hr. Drugs and/or solvents were added (20 μl) to a final volume of 120 μl. Following 2 hr treatment plates were removed from the incubator and cell lysis was achieved by the addition of 30 μl 5× lysis buffer followed by shaking on a plate shaker at 4° C. for 10 min. At the end of this incubation lysed cells were centrifuged at 800×g for 20 min at 4° C. and the lysate was assessed for P-IKK levels by sandwich immuno-assay carried out in anti-rabbit antibody coated Mesoscale plates. Within an experiment, the results for each treatment were the mean of 2 replicate wells. For initial screening purposes, compounds were tested using an 8 point dilution curve (serial 1:3 dilutions). […] The blank incubation value was subtracted from all control and sample values. To determine the IC50 a sigmoidal curve was fitted to the plot of % inhibition of control P-IKKα levels versus Log10 compound concentration.

IC50 [1]	IC50 [2]	IC50 [3]	IC50 [4]	melting point	IC50 ([1]; Homo sapiens, KMS-12-BM, 96 h)	IC50 ([3]; Homo sapiens, JJN-3, 96 h)	IC50 ([4]; Homo sapiens, L-363, 2 h)	SMILES
> 10000 nM	7.4 nM	12 nM	6.9 nM					Cc1cnc(OC2CCN(C)CC2F)c(Nc2nccc(-c3cc(C#N)c4c(c3)[C@@](C)(CO)CN4)n2)c1 (mixture of isomers) [Compound 171]
	14.1 nM		85.1 nM	140 °C				Cc1cnc(OCC2CN(C)CCO2)c(Nc2nccc(-c3cc(C#N)c4c(c3)[C@@](C)(CO)CN4)n2)c1 (single isomer, unassigned) [Compound 152]
					~2690 nM	79 nM	81.3 nM	COc1ncccc1Nc1nccc(-c2cc(C#N)c3c(c2)C(C)(CO)CN3)n1 (stereo not drawn) [Compound 1]
	4.5 nM				5010 nM	282 nM	15.8 nM	Cc1cc(Nc2nccc(-c3cc(C#N)c4c(c3)[C@@](C)(CO)CN4)n2)c(=O)n(CCC2CC2)c1 [Compound 5i]
	1.2 nM				9550 nM	115 nM	3.7 nM	Cc1cc(Nc2nccc(-c3cc(C#N)c4c(c3)[C@@](C)(CO)CN4)n2)c(=O)n(CCN2CCOCC2)c1 [Compound 7i]
	64.6 nM						550 nM	CN1CCC(c2cc(Nc3nccc(-c4cc(C#N)c5c(c4)[C@@](C)(CO)CN5)n3)c(=O)n(CC3CC3)c2)CC1 [Compound 21i]
	1.7 nM				> 10000 nM	120 nM	9.5 nM	CNC(=O)c1cc(Nc2nccc(-c3cc(C#N)c4c(c3)[C@@](C)(CO)CN4)n2)c(=O)n(CC2CC2)c1 [Compound 25i]
	2.1 nM				> 10000 nM	28 nM	2.3 nM	Cc1cc(Nc2nccc(-c3cc(C#N)c4c(c3)[C@@](C)(CO)CN4)n2)c(=O)n(CC2COCCN2C)c1 (stereo partly drawn) [Compound 26i]
	5.8 nM				> 10000 nM	148 nM	13.8 nM	Cc1cc(Nc2nccc(-c3cc(C#N)c4c(c3)C(C)(C)CN4)n2)c(=O)n(CCN2CC(F)C2)c1 [Compound 27i]
	7.6 nM			235 °C			21.4 nM	CC1(C)CNc2c(C#N)cc(-c3ccnc(Nc4cc(F)cn(CCN5CC(F)C5)c4=O)n3)cc21 [Compound 28i]
	4.3 nM				~8130 nM	316 nM	13.8 nM	CC(C)Oc1nc(P(C)(C)=O)ccc1Nc1nccc(-c2cc(C#N)c3c(c2)[C@@](C)(CO)CN3)n1 [Compound 57]
	6.9 nM				> 10000 nM	200 nM	~17 nM	COCCCc1ccc(Nc2nccc(-c3cc(C#N)c4c(c3)[C@@](C)(CO)CN4)n2)c(OC)n1 [Compound 58]
	7.2 nM				> 10000 nM	708 nM	70.8 nM	COCCOc1nc(P(C)(C)=O)ccc1Nc1nccc(-c2cc(C#N)c3c(c2)[C@@](C)(CO)CN3)n1 [Compound 60]
	12.3 nM				> 10000 nM	204 nM	186 nM	COCCOc1ncc(C2CC2)cc1Nc1nccc(-c2cc(C#N)c3c(c2)[C@@](C)(CO)CN3)n1 [Compound 67]
	3.9 nM				5130 nM	98 nM	~20 nM	Cc1cnc(CCC2CC2)c(Nc2nccc(-c3cc(C#N)c4c(c3)[C@@](C)(CO)CN4)n2)c1 [Compound 68]
	9.8 nM				> 10000 nM	> 10000 nM	18.2 nM	CC(C)Oc1ncc(C#N)cc1Nc1nccc(-c2cc(C#N)c3c(c2)[C@@](C)(CO)CN3)n1 [Compound 75]
	4.7 nM				> 10000 nM	589 nM	28.2 nM	CC(C)(CO)Oc1ncc(C#N)cc1Nc1nccc(-c2cc(C#N)c3c(c2)[C@@](C)(CO)CN3)n1 [Compound 78]
	3.7 nM				> 10000 nM	525 nM	38.9 nM	Cc1cnc(CCC(=O)N(C)C)c(Nc2nccc(-c3cc(C#N)c4c(c3)[C@@](C)(CO)CN4)n2)c1 [Compound 80]

IC50 [1]	IC50 [2]	IC50 [3]	IC50 [4]	melting point	IC50 ([1]; Homo sapiens, KMS-12-BM, 96 h)	IC50 ([3]; Homo sapiens, JJN-3, 96 h)	IC50 ([4]; Homo sapiens, L-363, 2 h)	SMILES
	5.6 nM				> 10000 nM	4680 nM	11.8 nM	Cc1cnc(/C=C/C(=O)N(C)C)c(Nc2nccc(-c3cc(C#N)c4c(c3)[C@@](C)(CO)CN4)n2)c1 [Compound 84]
	2.5 nM				> 10000 nM	372 nM	3 nM	C[C@]1(CO)CNc2c(C#N)cc(-c3ccnc(Nc4cc(C#N)cnc4OC4CC4)n3)cc21 [Compound 85]
	3.8 nM				> 10000 nM	427 nM	27.5 nM	CNC(=O)c1cnc(CCC2CC2)c(Nc2nccc(-c3cc(C#N)c4c(c3)[C@@](C)(CO)CN4)n2)c1 [Compound 87]
	1.9 nM				> 10000 nM	5890 nM	32.4 nM	Cc1nc(P(C)(C)=O)c(Cl)cc1Nc1nccc(-c2cc(C#N)c3c(c2)[C@@](C)(CO)CN3)n1 [Compound 90]
	2.2 nM				> 10000 nM	65 nM	1.1 nM	Cc1cc(Nc2nccc(-c3cc(C#N)c4c(c3)[C@@](C)(CO)CN4)n2)c(CCC2CC2)nc1P(C)(C)=O [Compound 96]
	9.8 nM				> 10000 nM	1820 nM	42.7 nM	COc1ncccc1Nc1nccc(-c2cc(C#N)c3c(c2)C(C)(C)CN3)n1 [Compound 97]
	50.1 nM				> 10000 nM	832 nM	45.7 nM	COCCNc1nc(OC)c(Nc2nccc(-c3cc(C#N)c4c(c3)C(C)(C)CN4)n2)cc1Cl [Compound 98]
	123 nM				> 10000 nM	708 nM	275 nM	COc1nc(N(C)C)c(Cl)cc1Nc1nccc(-c2cc(C#N)c3c(c2)C(C)(C)CN3)n1 [Compound 99]
	4.8 nM				> 10000 nM	427 nM	12 nM	COc1nc(C2CCOCC2)ncc1Nc1nccc(-c2cc(C#N)c3c(c2)[C@@](C)(CO)CN3)n1 [Compound 140]
	18.6 nM				4790 nM	741 nM	355 nM	COCCOc1nc(C2CCOCC2)ncc1Nc1nccc(-c2cc(C#N)c3c(c2)[C@@](C)(CO)CN3)n1 [Compound 141]
	1.6 nM				> 10000 nM	49 nM	2.3 nM	Cc1cc(Nc2ncc(F)c(-c3cc(C#N)c4c(c3)[C@@](C)(CO)CN4)n2)c(C)cn1 [Compound 158]
	28.2 nM				> 10000 nM	417 nM	46.8 nM	COc1nc(CC(C)C)c(Nc2nccc(-c3cc(C#N)c4c(c3)[C@@](C)(CO)CN4)n2)cc1C [Compound 161]
	1.3 nM				> 10000 nM	117 nM	6.2 nM	CNC(=O)c1cc(Nc2nccc(-c3cc(C#N)c4c(c3)[C@@](C)(CO)CN4)n2)c(C)cn1 [Compound 165]
	4.1 nM				~2190 nM	26 nM	3.9 nM	Cc1cc(Nc2nccc(-c3cc(C#N)c4c(c3)[C@@](C)(CO)CN4)n2)c(C)nc1OC1CCN(C)CC1 [Compound 172]
	18.2 nM						51.3 nM	CNC(=O)c1ncc(Cl)cc1Nc1nccc(-c2cc(C#N)c3c(c2)C(C)(CO)CN3)n1 (stereo not drawn) [Compound 178]
	93.3 nM						1440 nM	CC1(CO)CNc2c(C#N)cc(-c3ccnc(Nc4cc(Cl)cnc4C(=O)N4CCCC4)n3)cc21 (stereo not drawn) [Compound 179]
	5.2 nM						25.1 nM	COc1ncccc1Nc1ncnc(-c2cc(C#N)c3c(c2)[C@@](C)(CO)CN3)n1 [Compound 181]
